Article PMC11645267, “Novel pharmacologic inhibition of lysine-specific demethylase 1 as a potential therapeutic for glioblastoma” (Cancer Gene Therapy, 2024)

Columns and labels:
[1] = test system: GSC1228 intracranial xenograft; experiment: Intracranial xenograft mouse model inoculated with GSC1228 cells; format: in vivo, NOD/SCID mice
Description: All experiments were performed under protocols approved by the Institutional Animal Care and Use Committee of Nagoya University of Graduate School of Medicine. Cells (1 × 10^5 cells per mouse) were injected intracranially into 6-week-old female NOD/SCID mice (n = 20, SLC, Shizuoka, Japan). Four weeks after the injection, S2172 or DMSO were intravenously injected five days a week for 3 weeks (10 mg/kg per day, 15 injections in total). We used established guidelines to determine the sample size for the mouse experiments. The mice were assigned randomly to experimental and control groups. There was no blinding applied in the experiment.
We utilized intracranial xenograft mouse models inoculated with GSC1228 cells. After 30 days of inoculation, we administered S2172 intravenously at 10 mg/kg five times a week for three weeks. […] Following treatment with S2172 for one week, mice were sacrificed, and the xenograft glioma tissues were examined. The H3K4me2 level was increased in the tumor regions treated with S2172 (P < 0.01, Fig. 4B). Consistent with the in vitro analysis, the protein levels of Nestin and SOX2 were decreased in tumor tissues (Fig. 4C).
Fig. 4 S2172 eradicates tumor cells in GSC brain tumor mouse model. A Tumor volume was assessed by MRI after treatment with either DMSO or S2172 for 15 times. Error bars represent the SD. *P < 0.05. n = 7. B H3K4me2 level in the tumor tissue from the mouse brain (left panel). Quantification of western blot band signal intensity (right panel). The y-axis in the panel indicates the relative signal intensity of each protein normalized to histone H3. […] Quantification of western blot band signal intensity (right panel). […]
(§1) The density of bands was quantified using ImageJ software (https://imagej.nih.gov/ij/). […]
(§2) When mice were scanned with MRI, mice were anesthetized with isoflurane (3% in air) and placed in MRS 3017 Benchtop MRI Systems (MR Solutions, Guildford, UK). Using MRI images, tumor volumes were obtained by compiling tumor areas from all slices that contained tumors and calculated by ImageJ software (https://imagej.nih.gov/ij/) {Towner, […]

KINGS1 = experiment: Western blot of global histone modifications; format: cell-based; conditions: KINGS1, 5 μM, 96 h
Description: The effects of S2172 on global histone modifications in GSCs were examined using western blot analysis. GSC cells were treated with 5 μM of S2172 since […] of the cells are still viable at this concentration (Fig. 2, Supplementary Fig. S1E). […] Treatment of GSCs with S2172 increased the overall levels of H3K4me2 as well as H3K9me2. However, these changes were not statistically significant (Fig. 2A, B). […]
instructions. For GSC cells, the CellTiter-Glo 3D Viability Assay (Promega, Madison, WI, USA) was used to measure the living cells. All proliferation experiments were repeated […]
as §1, §2
B. Western blot analysis of LSD1,MYC, Nestin, SOX2,and ACTB in same cells as shown in panel A. ACTB was used as a loading control. […] Quantification of signal intensities of the Western blot (right panel). […] Right panel: Quantification of band signal intensities from the Western blot. […]

NC1CCC(NC2CC2c2cc(F)cc(F)c2OCc2ccccc2)CC1 (stereo not shown) [S2172]
tumor area (MRI; HE-stained tissue images) ([1]; 10 mg/kg intravenously five times a week for three weeks, P < 0.05 MRI, P < 0.01 HE): significantly smaller | protein levels of Nestin and SOX2 in tumor tissues ([1]; after one week of treatment): decreased | H3K4me2 level in tumor regions ([1]; after one week of treatment, P < 0.01): increased | levels of H3K4me1, H3K4me2, H3K4me3, and H3K9me2 (KINGS1): slight increase
